Patent US20260191849A1, “PHARMACEUTICAL COMPOSITION FOR TREATMENT OF CANCER” (WIGEN BIOMEDICINE TECHNOLOGY (SHANGHAI) CO., LTD., priority 2022, published 2026)

Tests used:
[1] = test system: Histone H3 Ser10 site in HT29 cells; experiment: Phosphorylation assay of histone H3 Ser10 site in HT29 cells, immunofluorescence (Biological Example 4); type: cell-based; settings: Homo sapiens, HT-29, 6 h, FITC/DAPI
Method: HT29 cells were seeded in a 96-well plate (Fisher 160376) at 8000 cells/well. The next day, the serially diluted compounds were added. Six hours after the addition of the compounds, the cells were washed once with 1×PBS, immobilized with 4% PFA for 15 min, further washed three times with 1×PBS, and permeabilized with 0.02% Triton-X100 for 10 min. Then, blocking was performed for 15-30 min using a blocking buffer. After a primary antibody (Phospho-Histone H3 (Ser10)) at a 1:3000 dilution was added, the well plate was left to stand at 4° C. overnight. The next day, the cells were washed three times with 1×PBS, and then a secondary antibody (Fluorescein (FITC)-conjugated Affinipure Goat Anti-Rabbit IgG (H+L)) at a 1:1000 dilution was added. The cells were incubated in the dark for 1-2 h and then washed three times with 1×PBS. Subsequently, the cell nuclei were stained using DAPI. The ratio of phosphorylation (FITC/DAPI) at H3 Ser10 site in HT29 cells was quantified. The effects of the compounds on Phospho-Histone H3 were evaluated, and EC50 values of the compounds were calculated.

[2] = test system: HT29 subcutaneous xenograft tumors; experiment: In vivo pharmacodynamic study, HT29 subcutaneous xenograft tumor model of mice (Biological Example 3); set-up: species or system BALB/c nude mice; settings: for Tumor volume on day 1 of administration / TGI / Tumor volume on day 28 of administration: 80 mg/kg intragastric once daily; for Tumor volume on day 1 of administration: day 1 (baseline); for TGI / Tumor volume on day 28 of administration: day 28; for inhibitory effects on the HT29 subcutaneous xenograft tumor in mice compared with AMG650: 80 mg/kg, in words
Method: BALB/c nude mice were each inoculated subcutaneously with 5×10^6 HT29 cells on the left dorsal side. After the tumors grew to 100-150 mm^3, the mice were randomly divided into the following groups for intragastric administration once daily: group 1: vehicle control group; group 2: compound 661 (80 mg/kg); group 3: compound 669 (80 mg/kg); group 4: compound 677 (80 mg/kg); group 5: compound 714 (80 mg/kg); group 6: compound 727 (80 mg/kg); group 7: compound 740 (80 mg/kg); and group 8: AMG65 (80 mg/kg). The tumor volume was measured twice weekly and at the end of administration. […].

[3] = test system: HT29 subcutaneous xenograft tumors; experiment: In vivo pharmacodynamic study of combination therapy, HT29 subcutaneous xenograft tumor model of mice (Biological Example 14); set-up: species or system BALB/c nude mice
Text: BALB/c nude mice were each inoculated subcutaneously with 5×10^6 HT29 cells on the left dorsal side. After the tumors grew to 100-150 mm^3, the mice were randomly divided into the following groups for intragastric administration once daily for 14 consecutive days: group 1: vehicle control group; group 2: AMG650 (50 mpk, PO, QD); group 3: compound 714 (50 mpk, PO, QD); group 4: AMG650 (50 mpk, PO, QD)+Onvasertib (20 mpk, PO, QD); group 5: compound 714 (50 mpk, PO, QD)+Onvasertib (20 mpk, PO, QD); and group 6: Onvasertib (20 mpk, PO, QD). The administration to all the groups was stopped on day 15, and the tumor growth continued to be observed until day 21. The tumor volume was measured twice weekly and at the end of administration. […]

[4] = PO QD 14 days, AMG650/714 50 mpk, Onvasertib 20 mpk, day 15
[5] = PO QD 14 days, AMG650/714 50 mpk, Onvasertib 20 mpk, day 21, after stop of administration

| Structure (SMILES) | EC50 [1] [nM] | Tumor volume on day 1 of administration [2] [mm^3] | TGI [2] [%] | Tumor volume on day 28 of administration [2] [mm^3] | inhibitory effects on the HT29 subcutaneous xenograft tumor in mice compared with AMG650 [2] | Tumor volume on day 1 of administration ([3]; PO QD 14 days, AMG650/714 50 mpk, Onvasertib 20 mpk, day 1 (baseline)) [mm^3] | TGI on day 15 [3, 4] [%] | Tumor volume on day 15 of administration [3, 4] [mm^3] | TGI on day 21 [3, 5] [%] | Tumor volume on day 21 of administration [3, 5] [mm^3] | tumor inhibitory effect, combined use with the PLK1 inhibitor Onvasertib compared with monotherapy ([3]; combined with Onvasertib, in words) | therapeutic efficacy of monotherapy in HT29-bearing mice ([3]; monotherapy, in words) |
| --- | --- | --- | --- | --- | --- | --- | --- | --- | --- | --- | --- | --- |
| COc1ccc(NC(=O)c2ccc(NS(=O)(=O)CCOC(=O)[C@@H](N)C(C)C)cc2N2CCC3(CC2)CC3)nc1N1CCC(F)(F)CC1 [Compound 714] | 39.2 | 121 | 80 | 424 | stronger inhibitory effects | 134 | 121 | 17 | 110 | 49 | stronger tumor inhibitory effect | able to inhibit tumor growth |
| COc1ccc(C(=O)Nc2ccc(NS(=O)(=O)CCOC(=O)[C@@H](N)C(C)C)cc2N2CCC3(CC2)CC3)nc1N1CCC(F)(F)CC1 [Compound 727] |  | 121 | 73 | 519 | stronger inhibitory effects |  |  |  |  |  |  |  |
| COc1ccc(NC(=O)c2ccc(S(=O)(=O)NCCOC(=O)[C@@H](N)C(C)C)cc2N2CCC3(CC2)CC3)nc1N1CCC(F)(F)CC1 [Compound 740] |  | 121 | 67 | 605 | stronger inhibitory effects |  |  |  |  |  |  |  |
